Reference: ChEMBL document CHEMBL2380296, “Structure-based design and optimization of 2-aminothiazole-4-carboxamide as a new class of CHK1 inhibitors” (Bioorg Med Chem Lett, 2013)

Key:
[1] = molecular target: T1, Serine/threonine-protein kinase Chk1 (Homo sapiens, UniProt O14757); experiment: Inhibition of CHK1 in human U2OS cells assessed as phosphorylation of H2AX after 2 hrs by FITC/propidium iodide staining-based immunofluorescence assay in presence of hydroxyurea; assay type: cell-based
T1 sequence (O14757 whole entry): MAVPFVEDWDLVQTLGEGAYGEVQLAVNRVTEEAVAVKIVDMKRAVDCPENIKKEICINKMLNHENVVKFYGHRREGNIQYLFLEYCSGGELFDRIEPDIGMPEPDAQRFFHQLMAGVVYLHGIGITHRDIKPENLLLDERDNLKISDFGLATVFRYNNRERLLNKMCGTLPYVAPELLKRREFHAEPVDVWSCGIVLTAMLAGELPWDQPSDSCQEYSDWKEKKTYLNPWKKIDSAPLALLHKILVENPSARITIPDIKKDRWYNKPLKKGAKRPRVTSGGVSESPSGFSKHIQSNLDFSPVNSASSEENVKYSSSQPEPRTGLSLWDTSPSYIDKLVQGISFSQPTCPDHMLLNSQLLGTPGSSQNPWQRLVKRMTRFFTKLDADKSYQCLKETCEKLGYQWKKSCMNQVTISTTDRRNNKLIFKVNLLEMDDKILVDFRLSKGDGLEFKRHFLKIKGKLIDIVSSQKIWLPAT

[2] = molecular target: T1, Serine/threonine-protein kinase Chk1

| Structure (SMILES) | EC50 [1] [nM] | IC50 [2] [nM] |
| --- | --- | --- |
| O=C(Nc1ccccc1N1CCNCC1)c1csc(Nc2cc(-c3ccccc3)n[nH]2)n1 | 7500 | 14 |
| O=C(Nc1cnccc1N1CCNCC1)c1csc(N2Cc3ccccc3C2=O)n1 | 100 | 2 |
| O=C(Nc1ccccc1N1CCNCC1)c1csc(N2Cc3ccccc3C2)n1 | 1400 | 8 |
| COc1ccc(-c2cc(Nc3nc(C(=O)Nc4ccccc4N4CCNCC4)cs3)[nH]n2)cc1 | 3750 | 3 |
| O=C(Nc1ccccc1N1CCNCC1)c1csc(NCc2ccccc2)n1 | – | 11000 |
| CN(c1ccccc1)c1nc(C(=O)Nc2ccccc2N2CCNCC2)cs1 | – | 240 |
| O=C(Nc1ccccc1N1CCNCC1)c1csc(N2CCc3[nH]cnc3C2)n1 | – | 4000 |
| O=C(Nc1cnccc1N1CCNCC1)c1csc(-c2ccc3sccc3c2)n1 | 1250 | 7 |
| O=C(Nc1ccncc1N1CCNCC1)c1csc(-c2ccc3c(c2)CCO3)n1 | – | 230 |
| O=C(Nc1ccccc1N1CCNCC1)c1csc(-n2nnc3ccccc32)n1 | – | 110 |
| O=C(Nc1ccccc1N1CCNCC1)c1csc(N2CCc3c(F)ccc(F)c3C2)n1 | – | 1300 |
| O=C(Nc1cnccc1N1CCNCC1)c1csc(-c2ccc3occc3c2)n1 | – | 28 |
| COc1ccc2c(c1)C(=O)N(c1nc(C(=O)Nc3ccnnc3N3CCNCC3)cs1)C2 | – | 281 |
| O=C(Nc1ccccc1N1CCNCC1)c1csc(N2Cc3cn[nH]c3C2)n1 | – | 62 |
| O=C(Nc1ccccc1N1CCNCC1)c1csc(N2CCc3ccccc3C2)n1 | – | 38 |
| COc1ccc2c(c1)C(=O)N(c1nc(C(=O)Nc3ccccc3N3CCNCC3)cs1)C2 | 250 | 5 |
| O=C(Nc1ccccc1N1CCNCC1)c1csc(Nc2n[nH]c3ccccc23)n1 | 350 | 2 |
| O=C(Nc1ccccc1N1CCNCC1)c1csc(N2Cc3ccncc3C2)n1 | – | 190 |
| O=C(Nc1ccccc1N1CCNCC1)c1csc(N2CCc3sccc3C2)n1 | – | 39 |
| O=C(Nc1cccnc1N1CCNCC1)c1csc(-c2ccc3c(c2)CCO3)n1 | – | 870 |
| Cc1nc2c(s1)CN(c1nc(C(=O)Nc3ccccc3N3CCNCC3)cs1)C2 | – | 280 |
| Cn1nc(-c2ccccc2)cc1Nc1nc(C(=O)Nc2ccccc2N2CCNCC2)cs1 | – | 4500 |

| Structure (SMILES) | EC50 [1] [nM] | IC50 [2] [nM] |
| --- | --- | --- |
| O=C(Nc1ccccc1N1CCNCC1)c1csc(-n2ccnc2)n1 | – | 10000 |
| O=C(Nc1cnccc1N1CCNCC1)c1csc(-c2ccc3[nH]ccc3c2)n1 | 1000 | 10 |
| Cc1ncc2c(n1)CN(c1nc(C(=O)Nc3ccccc3N3CCNCC3)cs1)C2 | – | 5700 |
| O=C(Nc1ccccc1N1CCNCC1)c1csc(NC2Cc3ccccc3C2)n1 | – | 6900 |
| O=C(Nc1cnccc1N1CCNCC1)c1csc(-c2ccc(Oc3ccccc3)cc2)n1 | – | 430 |
| O=C(Nc1ccccc1N1CCNCC1)c1csc(-n2ncc3ccccc32)n1 | 750 | 2 |
| O=C(Nc1cnccc1N1CCNCC1)c1csc(-c2ccc3c(c2)CCO3)n1 | – | 55 |
| COc1ccc2c(c1)C(=O)N(c1nc(C(=O)Nc3cc(F)ccc3N3CCNCC3)cs1)C2 | 6000 | 4 |
| O=C(Nc1cnccc1N1CCNCC1)c1csc(-c2cc3ccccc3s2)n1 | 1000 | 3 |
| O=C(Nc1ncccc1N1CCNCC1)c1csc(-c2ccc3c(c2)CCO3)n1 | – | 4700 |
| COc1ccc(-c2cc(N)n(-c3nc(C(=O)Nc4ccccc4N4CCNCC4)cs3)n2)cc1 | – | 980 |
| COc1ccc2c(c1)C(=O)N(c1nc(C(=O)Nc3cnc(C)cc3N3CCNCC3)cs1)C2 | 1000 | 10 |
| COc1ccc2c(c1)C(=O)N(c1nc(C(=O)Nc3cncnc3N3CCNCC3)cs1)C2 | – | 46 |
| O=C(Nc1cnccc1N1CCNCC1)c1csc(Nc2n[nH]c3ccccc23)n1 | 40 | 3 |
| COc1cc2c(cc1OC)CN(c1nc(C(=O)Nc3ccccc3N3CCNCC3)cs1)CC2 | – | 29 |
| O=C(Nc1ccccc1N1CCNCC1)c1csc(Nc2ccccc2)n1 | – | 92 |
| O=C(Nc1ccccc1N1CCNCC1)c1csc(N2CCCc3ccccc32)n1 | – | 38 |
| COc1ccc2c(c1)C(=O)N(c1nc(C(=O)Nc3cnc4ccccc4c3N3CCNCC3)cs1)C2 | – | 5200 |
| O=C(Nc1ccccc1N1CCNCC1)c1csc(-n2cccn2)n1 | – | 120 |
| O=C(Nc1cnccc1N1CCNCC1)c1csc(-n2ncc3ccccc32)n1 | 75 | 3 |
| O=C(Nc1cnccc1N1CCNCC1)c1csc(N2Cc3ccccc3C2)n1 | 900 | 8 |
| CN(Cc1ccccc1)c1nc(C(=O)Nc2ccccc2N2CCNCC2)cs1 | – | > 50000 |
